The values below are quoted from earlier work in patent US6646013B1, “Nutrient formulations for disease reduction” (Nutri-Logics, priority 1999, dated 2003).

What is called LD50 is the dose expected to kill half of the subjects tested.

Like-named read-outs stand apart in the source and are kept apart here.

The conditions of data set [1]: circulation.
Assay in data set [2]: not given
This is another data set of the same source.

Data set [3] deals with colon cancer. The note with it: patients with chronic ulcerative colitis.
Assay in data set [4]: not given
The source holds these as a separate data set.

For data set [5], the system named is colorectal cancer. The note with it: meta-analysis of twenty-four studies, calcium intake.
The conditions of data set [6]: gastrointestinal side effects (distress, bloating).
Assay in data set [7]: not given
This is another data set of the same source.

Assay in data set [8]: not given
This is another data set of the same source.

Data set [9] concerns vitamin K activity. The note with it: vitamin K-deficient patients.
Data set [10] deals with prostate cancer. The note with it: vitamin E intake [37].
Data set [11] has as its system mice. The conditions noted are these: oral doses.
Data set [12] deals with rats. The note with it: oral doses.
Assay in data set [13]: not given
The source holds these as a separate data set.

For data set [14] the following is noted: animal fertility studies.
The conditions of data set [15]: normal parathyroid function and vitamin D sensitivity.
The conditions of data set [16]: saturable absorption.
In data set [17] the test system is colon carcinogenesis. The conditions noted are these: rat colon model for carcinogenesis.

On to `Cc1ncc(COP(=O)(O)O)c(C=O)c1O` [Pyridoxal phosphate, pyridoxal 5′ phosphate], for which, in data set [1], the “share of circulating vitamin B6” value is “at least 60%”.

Turning to Cyanocobalamin [vitamin B12], the “share of the body's stores in the liver” value is reported as at most 90%.

On to `Nc1nc2ncc(CNc3ccc(C(=O)N[C@@H](CCC(=O)O)C(=O)O)cc3)nc2c(=O)[nH]1` [folic acid, N-[**4-[**[**(2-Amino-1,4-dihydro-4-oxo-6-pteridinyl)methyl]amino]benzoyl]-L-glutamic Acid], for which the “dose with no adverse human effects” value in [2] (duration not stated) was 15 mg/day; in data set [2] (for 4 months), 10 mg/day. Also, in data set [3], the “lower incidence of colon cancer versus no supplementation” value is reported as 62%.

On to `[Ca]` [calcium], for which, in data set [4] (human plasma), the “fraction complexed to anionic buffers” value is “about 10%”. In addition, the “fraction bound to plasma proteins” value in [4] (human plasma, primarily albumin) is listed as “approximately 45%”. The “fraction of filtered Ca2+ reabsorbed” value in data set [4] (kidney) is reported as “approximately 98%”. Further, the “summary relative risk of colorectal cancer” value in [5] is reported as 0.89 (0.79-1.01). In data set [6], the “supplement dose above which generally not well tolerated” value is on record as “exceeding 800 mg per day”.

With `O=C(O)c1ccccc1O` [Salicylate, salicylic acid], in [7] (oral), the “time to peak plasma concentrations” value is at most 2 h and the “time to significant plasma concentrations” value was at most 30 min. Also, in [7] (urine), the “excreted in the urine as acyl glucuronide” value is on record as 5%, the “excreted in the urine as free salicylic acid” value is 10%, the “excreted in the urine as salicylic phenolic glucuronide” value is reported as 10% and the “excreted in the urine as salicyluric acid” value was 75%.

For the molecule `Cc1ncc(CO)c(CO)c1O` [vitamin B6, pyridoxine], the “dose at which symptoms of dependency were noted” value in data set [8] (adults) is recorded as 200 mg daily. Also, the “dose at which neurotoxicity may develop” value in data set [8] (prolonged ingestion) is 200 mg per day.

Consider `Cc1c(C)c2c(c(C)c1O)CCC(C)(CCCC(C)CCCC(C)CCCC(C)C)O2` (stereo not shown) [vitamin E, 3,4-Dihydro-2,5,7,8-tetramethyl-2-(4,8,12-trimethyltridecyl)-2H-1-benzopyran-6-ol], for which the “prolonged daily intake after which bleeding is a concern” value in [9] is recorded as over 800 IU. Further, in data set [10], the “decrease in the incidence of prostate cancer” value is listed as 34%.

On to `CC(=O)N[C@@H](CS)C(=O)O` [NAC, N-Acetyl-l-cysteine], for which the LD50 in [11] was 7888 mg/kg; in [12], “greater than 6000 mg/kg”. In data set [13] (estimated), the “plasma half-life of free NAC” value is reported as “about 2 hours”. Also, in [13] (oral administration), the “time to peak plasma NAC concentration” value was “less than one”. Further, the “bioavailability of the intact NAC molecule” value in [13] (oral, estimated) is given as 4-10%. The “time post-administration at which virtually no NAC is detected” value in data set [13] (plasma) was 10 to 12 h. The “dose with no adverse effects reported” value in data set [14] is “up to 250 mg/kg”. Also, in data set [14], the “dose with no teratogenic effects observed” value was at most 2000 mg/kg.

Consider `C=C1CC[C@H](O)C/C1=C/C=C1\CCC[C@]2(C)[C@@H]([C@H](C)CCCC(C)C)CC[C@@H]12` [vitamin D, (3β,5Z,7E)-9,10-Secocholesta-5,7,10(19)-triene-3-ol], for which, in [15], the “continuous daily ingestion causing signs of hypervitaminosis” value is on record as ≥ 50,000 units daily.

For the molecule `O=C1O[C@H]([C@@H](O)CO)C(O)=C1O` [Ascorbate, ascorbic acid], the “concentration at which absorption is half-maximal” value in data set [16] is “about 1 mM”.

For `COc1cc(/C=C/C(=O)CC(=O)/C=C/c2ccc(O)c(OC)c2)ccc1O` [curcumin, (E,E)-1,7-Bis(4-hydroxy-3-methoxyphenyl)-1,6-heptadiene-3,5-dione], the “efficacy of pure form (>98%) versus food-grade curcumin” value in data set [17] is given as “equally effective”.
